By GI50 is commonly meant the concentration giving 50% growth inhibition.

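Results reflect a 48-hour exposure of cells in 96-well plates to compound at five concentrations. At the GI50, growth is halved.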 Active and inactive are the calls of the source. Rule as the data show it: active = GI50 up to about 1.1 µM and inactive = higher.

11 molecules from ChEMBL document CHEMBL1201862, “PubChem BioAssay data set” (2004) can be followed below.

Some test systems named below: SK-OV-3; M14; SW-620; EKVX; HCT-116; Hs-578T; NCI-H226; SN12C; CAKI-1; SK-MEL-28; NCI-H522; TK-10; SR; UACC-62; HOP-62; SK-MEL-5; IGROV-1; HCT-15; RPMI-8226; DMS-114.
Common to all, as to experiment: DTP human tumour cell line panel, 48 h

Turning to `CC1OC(OC2C(O)COC(OC3C(C)OC(OC4C(OC(=O)[C@]56CCC(C)(C)C[C@@H]5C5=CCC7[C@@]8(C)C[C@H](O)[C@H](OC9OC(CO)C(O)C(O)C9O)[C@@](C)(CO)[C@@H]8CC[C@@]7(C)[C@]5(C)CC6)OCC(O)C4O)C(O)C3OC3OCC(O)(CO)C3O)C2O)C(O)C(O)C1O` (stereo not given in full), the GI50 in the assay on SK-OV-3 was 17.7 µM (inactive); in the assay on M14, 3.33 µM (inactive); in the assay on SW-620, 11.3 µM (inactive); with EKVX, 4.16 µM (inactive); in the assay on HCT-116 it was 13.9 µM (inactive); with Hs-578T, 7.48 µM (inactive). Also, the GI50 in the assay with NCI-H226 is 16.9 µM (inactive); with SN12C, 4.3 µM (inactive); with CAKI-1, 2.58 µM (inactive); in the assay on SK-MEL-28 it was 3.29 µM (inactive); in the assay with NCI-H522 it was 16.1 µM (inactive); in the assay with TK-10, 14.5 µM (inactive). In addition, the GI50 is 13.8 µM (inactive) in the assay with SR; 13.2 µM (inactive) in the assay with UACC-62; 15.1 µM (inactive) in the assay with HOP-62; 13.3 µM (inactive) in the assay with SK-MEL-5; 13.3 µM (inactive) in the assay on IGROV-1; 16.1 µM in the assay on HCT-15. Besides, the GI50 in the assay with RPMI-8226 is 29.2 µM (inactive).
In the case of `NNC(=O)C(=O)N/N=C(\CCCC(=O)Nc1ccc(Cl)cc1)CC(=O)c1ccc(F)cc1`, the GI50 in the assay on DMS-114 was > 100 µM (inactive); in the assay with M14, 51.3 µM (inactive); in the assay with SW-620, > 100 µM (inactive); in the assay on EKVX it was > 100 µM (inactive); in the assay on HCT-116, > 100 µM (inactive); with NCI-H226, > 100 µM (inactive). For the same molecule, the GI50 in the assay on SN12C is > 100 µM (inactive); in the assay with SK-MEL-28, > 100 µM (inactive); in the assay on TK-10, > 100 µM (inactive); with UACC-62 it was 3.43 µM (inactive); in the assay on HOP-62, > 100 µM (inactive); in the assay with SK-MEL-5, > 100 µM (inactive). Moreover, the GI50 was > 100 µM (inactive) in the assay with IGROV-1 and 36.1 µM (inactive) with RPMI-8226.
`CCOC(=O)CSc1nc(-c2ccc(OC)cc2)c(C#N)c(=O)[nH]1`: the GI50 in the assay on SK-OV-3, with M14, with SW-620, in the assay on EKVX, in the assay with HCT-116 and in the assay on Hs-578T was > 100 µM (inactive) throughout. In addition, the GI50 in the assay with NCI-H226, with SN12C, with CAKI-1, with SK-MEL-28, in the assay on NCI-H522 and with TK-10 was > 100 µM (inactive) each time. The GI50 with SR was 84.9 µM (inactive); in the assay with UACC-62 it was > 100 µM (inactive); with HOP-62, > 100 µM (inactive); in the assay on SK-MEL-5, > 100 µM (inactive); in the assay on IGROV-1, > 100 µM (inactive); with HCT-15 it was more than 100 µM. The GI50 with RPMI-8226 was > 100 µM (inactive).
`Cc1ccccc1C(=O)C#Cc1cn(C2CC(O)C(CO)O2)c(=O)[nH]c1=O` (stereo not given): the GI50 with SK-OV-3, in the assay with M14, with SW-620, in the assay with EKVX, in the assay with HCT-116 and in the assay with Hs-578T was > 100 µM (inactive) each time. Besides, the GI50 in the assay with NCI-H226 was > 100 µM (inactive); in the assay with SN12C it was > 100 µM (inactive); with CAKI-1, > 100 µM (inactive); with SK-MEL-28, > 100 µM (inactive); in the assay on NCI-H522 it was 14.7 µM (inactive); with TK-10, > 100 µM (inactive). Moreover, the GI50 with SR was 27.9 µM (inactive); with UACC-62 it was > 100 µM (inactive); in the assay on HOP-62 it was > 100 µM (inactive); in the assay with SK-MEL-5 it was > 100 µM (inactive); with IGROV-1, > 100 µM (inactive); in the assay with HCT-15, more than 100 µM. Also, in the assay on RPMI-8226, the GI50 was > 100 µM (inactive).
For the molecule `O=C1C(=Cc2cccc(Cl)c2)N=C(c2ccccc2)N1n1c(-c2ccccc2)nc2ccccc2c1=O`, the GI50 in the assay with SK-OV-3 is 47.2 µM (inactive); with M14 it was 22.7 µM (inactive); in the assay on SW-620 it was 45.3 µM (inactive); in the assay on EKVX, 28.4 µM (inactive); with HCT-116 it was 10.8 µM (inactive); in the assay on Hs-578T, 41.4 µM (inactive). Moreover, the GI50 in the assay on NCI-H226 is 63.4 µM (inactive); in the assay on SN12C, 45.2 µM (inactive); with CAKI-1 it was 45.1 µM (inactive); in the assay on SK-MEL-28, 50.2 µM (inactive); in the assay on NCI-H522, 16.4 µM (inactive); in the assay on TK-10 it was 95.5 µM (inactive). The GI50 was 37 µM (inactive) in the assay on SR; 23.9 µM (inactive) in the assay with UACC-62; 34.8 µM (inactive) in the assay with HOP-62; 32.4 µM (inactive) in the assay with SK-MEL-5; 35.2 µM (inactive) in the assay on IGROV-1; 49.3 µM in the assay on HCT-15. Besides, in the assay with RPMI-8226, the GI50 is 40.8 µM (inactive).
Regarding `COc1c(O)c(OC)c2oc(-c3ccc(O)cc3)c(OC)c(=O)c2c1O`, the GI50 with SK-OV-3 is 17 µM (inactive); in the assay on M14, 47.2 µM (inactive); in the assay on SW-620, 34.5 µM (inactive); in the assay with EKVX, 97.5 µM (inactive); in the assay on HCT-116, 46.3 µM (inactive); in the assay on Hs-578T, 18.4 µM (inactive). Also, the GI50 with NCI-H226 is 50.9 µM (inactive); with SN12C, 70.6 µM (inactive); in the assay with CAKI-1 it was 27.8 µM (inactive); in the assay with SK-MEL-28 it was 81.8 µM (inactive); with NCI-H522 it was 26.1 µM (inactive); in the assay on TK-10, 61.5 µM (inactive). Moreover, the GI50 in the assay with SR is 60.1 µM (inactive); in the assay with UACC-62, 22.7 µM (inactive); in the assay with HOP-62, 24.4 µM (inactive); in the assay on SK-MEL-5, 17.4 µM (inactive); with IGROV-1 it was 17.8 µM (inactive); in the assay with HCT-15, 28.1 µM. In the assay on RPMI-8226, the GI50 is 56.9 µM (inactive).
For the molecule `C=CCC1NCCC2=C1C(S(=O)(=O)c1ccc(C)cc1)c1ccccc12` (stereo not given), the GI50 with SK-OV-3 is 16.6 µM (inactive); in the assay with M14, 11.8 µM (inactive); in the assay with SW-620, 14.2 µM (inactive); in the assay with EKVX, 18 µM (inactive); in the assay on HCT-116, 11.1 µM (inactive); in the assay with Hs-578T it was 13.7 µM (inactive). Moreover, the GI50 in the assay with NCI-H226 was 16.8 µM (inactive); with SN12C it was 14.4 µM (inactive); in the assay on CAKI-1 it was 6.92 µM (inactive); in the assay with SK-MEL-28 it was 12.4 µM (inactive); with NCI-H522, 10.1 µM (inactive); in the assay with TK-10, 16.4 µM (inactive). The GI50 was 3.64 µM (inactive) in the assay with SR; 11.7 µM (inactive) in the assay on UACC-62; 14.5 µM (inactive) with HOP-62; 14.3 µM (inactive) in the assay with SK-MEL-5; 8.11 µM (inactive) in the assay with IGROV-1; 11.9 µM with HCT-15. Moreover, in the assay with RPMI-8226, the GI50 is 5.55 µM (inactive).
As for `C/C(=N\NS(=O)(=O)c1ccc(C)cc1)C(CN(C)C)C(c1ccccc1)c1c(O)c2ccccc2oc1=O` (stereo not given), the GI50 is 99.1 µM (inactive) with SK-OV-3; > 100 µM (inactive) with M14; > 69.3 µM (inactive) with SW-620; > 100 µM (inactive) with EKVX; > 100 µM (inactive) with HCT-116; > 100 µM (inactive) with Hs-578T. Also, the GI50 in the assay on NCI-H226, with SN12C, with CAKI-1, in the assay with SK-MEL-28, in the assay with NCI-H522 and in the assay with TK-10 was > 100 µM (inactive) in each case. For the same molecule, the GI50 is > 60 µM (inactive) with SR; > 86.3 µM (inactive) with UACC-62; 89.9 µM (inactive) in the assay with HOP-62; > 100 µM (inactive) in the assay with SK-MEL-5; > 100 µM (inactive) in the assay with IGROV-1; more than 100 µM in the assay on HCT-15. The GI50 in the assay on RPMI-8226 is > 95.9 µM (inactive).
For the molecule `Oc1ccc2ccccc2c1/N=N/c1ccc(/N=N/c2ccccc2)cc1`, the GI50 with SK-OV-3 is > 100 µM (inactive); with M14, > 100 µM (inactive); in the assay with SW-620, > 100 µM (inactive); with EKVX it was > 100 µM (inactive); with HCT-116, 93.1 µM (inactive); with Hs-578T it was > 100 µM (inactive). The GI50 in the assay with NCI-H226 is > 100 µM (inactive); in the assay on SN12C, > 100 µM (inactive); with CAKI-1, > 100 µM (inactive); with SK-MEL-28, > 100 µM (inactive); in the assay on NCI-H522, 86.3 µM (inactive); with TK-10, > 100 µM (inactive). Further, the GI50 with SR is 23.6 µM (inactive); with UACC-62, 75.7 µM (inactive); with HOP-62, > 100 µM (inactive); in the assay with SK-MEL-5, > 100 µM (inactive); with IGROV-1 it was > 100 µM (inactive); in the assay on HCT-15, more than 100 µM. In addition, in the assay with RPMI-8226, the GI50 was > 100 µM (inactive).
Turning to `Clc1cccc(-c2sc(-c3cccs3)cc2Cc2cccs2)c1`, the GI50 with SK-OV-3, with M14, in the assay on SW-620, in the assay with EKVX, with HCT-116 and in the assay with Hs-578T was > 10 µM (inactive) throughout. Further, the GI50 in the assay with NCI-H226, in the assay with SN12C, in the assay with CAKI-1, in the assay on SK-MEL-28, in the assay on NCI-H522 and in the assay with TK-10 was > 10 µM (inactive) in each case. Besides, the GI50 in the assay with SR was > 10 µM (inactive); with UACC-62, > 10 µM (inactive); in the assay on HOP-62, > 10 µM (inactive); with SK-MEL-5, > 10 µM (inactive); in the assay on IGROV-1, > 10 µM (inactive); with HCT-15, 2.79 µM. Moreover, in the assay on RPMI-8226, the GI50 was > 10 µM (inactive).
For `CC1CC(=O)CC[C@@H]1OCc1ccccc1` (stereo not given in full), the GI50 in the assay with SK-OV-3 was > 100 µM (inactive); with DMS-114, 94.2 µM (inactive); in the assay on M14, > 100 µM (inactive); in the assay on SW-620 it was > 100 µM (inactive); with EKVX, > 100 µM (inactive); in the assay on HCT-116, 81.3 µM (inactive). Moreover, the GI50 with SN12C, with CAKI-1, with TK-10, in the assay with UACC-62, in the assay with HOP-62 and with SK-MEL-5 was > 100 µM (inactive) throughout. For the same molecule, the GI50 in the assay on IGROV-1 is > 100 µM (inactive); in the assay on HCT-15, more than 100 µM; in the assay with RPMI-8226, 47 µM (inactive).
